Data from patent publication US4537879A, “A47934 Antibiotic and process for production thereof” (Eli Lilly and Company, priority 1984, dated 1985).
≈ marks a conversion by molar mass, not a printed value. Like-named read-outs stand apart in the source and are kept apart here.

Legend:
Format in all cases: cell-based
[1] = test system: Clostridium difficile 2994; test: MIC against anaerobic bacteria, agar dilution; settings: strain 2994
[2] = test system: Clostridium perfringens 81; settings: strain 81; agar dilution
[3] = test system: Clostridium septicum 1128; test: MIC against anaerobic bacteria, agar dilution; settings: strain 1128
[4] = test system: Eubacterium aerofaciens 1235; test: MIC against anaerobic bacteria, agar dilution; settings: strain 1235
[5] = test system: Peptococcus asaccharolyticus 1302; test: MIC against anaerobic bacteria, agar dilution; settings: strain 1302
[6] = test system: Peptostreptococcus anaerobius 1428; test: MIC against anaerobic bacteria, agar dilution; settings: strain 1428
[7] = test system: Peptostreptococcus intermedius 1264; test: MIC against anaerobic bacteria, agar dilution; settings: strain 1264
[8] = test system: Propionibacterium acnes 79; test: MIC against anaerobic bacteria, agar dilution; settings: strain 79
Bacteroides fragilis = test: MIC against anaerobic bacteria, agar dilution
[9] = test system: Bacteroides thetaiotaomicron 1438; test: MIC against anaerobic bacteria, agar dilution; settings: strain 1438
[10] = test system: Bacteroides melaninogenicus; test: MIC against anaerobic bacteria, agar dilution
[11] = test system: Bacteroides vulgatis 1211; test: MIC against anaerobic bacteria, agar dilution; settings: strain 1211
[12] = test system: Bacteroides corrodens 1874; test: MIC against anaerobic bacteria, agar dilution; settings: strain 1874
[13] = test system: Fusobacterium symbiosum 1470; test: MIC against anaerobic bacteria, agar dilution; settings: strain 1470
[14] = test system: Fusobacterium necrophorum 6054A; test: MIC against anaerobic bacteria, agar dilution; settings: strain 6054A
[15] = test system: Clostridium difficile strains; test: MIC against Clostridium difficile strains, agar-dilution
From the text: Antibiotic A47934 is also active against a number of strains of Clostridium difficile, as determined by the agar-dilution method.

Staphylococcus aureus = test: MIC against a variety of bacteria, standard agar-dilution
[16] = test system: Staphylococcus epidermidis; test: as above
[17] = test system: Streptococcus pyogenes C203; test: as above; settings: strain C203
[18] = test system: Streptococcus pneumoniae Park 1; test: as above; settings: strain Park 1
Streptococcus Group D = test: as above

N[C@H]1C(=O)N[C@@H]2Cc3ccc(c(Cl)c3)Oc3cc4cc(c3O)Oc3ccc(cc3Cl)[C@@H](O)[C@@H]3NC(=O)[C@H](NC(=O)[C@@H]4NC(=O)[C@@H](NC2=O)c2cc(O)cc(c2)Oc2cc1ccc2OS(=O)(=O)O)c1cc(Cl)c(O)c(c1)-c1c(O)cc(O)cc1[C@@H](C(=O)O)NC3=O [Antibiotic A47934]
MIC [1]: 0.5 µg/mL (≈ 0.381 µM)
MIC [2]: 0.5 µg/mL (≈ 0.381 µM)
MIC [3]: 0.5 µg/mL (≈ 0.381 µM)
MIC [4]: 1.0 µg/mL (≈ 0.761 µM)
MIC [5]: 0.5 µg/mL (≈ 0.381 µM)
MIC [6]: 0.25 µg/mL (≈ 0.19 µM)
MIC [7]: 1.0 µg/mL (≈ 0.761 µM)
MIC [8]: 1.0 µg/mL (≈ 0.761 µM)
MIC (Bacteroides fragilis; strain 111): 32.0 µg/mL (≈ 24.4 µM)
MIC (Bacteroides fragilis; strain 1877): 32.0 µg/mL (≈ 24.4 µM)
MIC (Bacteroides fragilis; strain 1936B): 32.0 µg/mL (≈ 24.4 µM)
MIC [9]: 32.0 µg/mL (≈ 24.4 µM)
MIC ([10]; strain 1856/28): > 128.0 µg/mL
MIC ([10]; strain 2736): 16.0 µg/mL (≈ 12.2 µM)
MIC [11]: 32.0 µg/mL (≈ 24.4 µM)
MIC [12]: 32.0 µg/mL (≈ 24.4 µM)
MIC [13]: 2.0 µg/mL (≈ 1.52 µM)
MIC [14]: 0.25 µg/mL (≈ 0.19 µM)
MIC ([15]; strain 78): ≤ 0.5 µg/mL
MIC ([15]; strain 107B): ≤ 0.5 µg/mL
MIC ([15]; strain 111F): ≤ 0.5 µg/mL
MIC ([15]; strain 1153): ≤ 0.5 µg/mL
MIC ([15]; strain 2634): ≤ 1.0 µg/mL
MIC ([15]; strain 3424-5B): ≤ 0.5 µg/mL
MIC ([15]; strain 3816): ≤ 0.5 µg/mL
MIC ([15]; strain 3950D): ≤ 0.5 µg/mL
MIC ([15]; strain 6890): ≤ 0.5 µg/mL
MIC ([15]; strain 8484): ≤ 0.5 µg/mL
MIC ([15]; strain A-194): ≤ 0.5 µg/mL
MIC ([15]; strain A-195): ≤ 0.5 µg/mL
MIC ([15]; strain A-196): ≤ 0.5 µg/mL
MIC ([15]; strain A-279): ≤ 1.0 µg/mL
MIC ([15]; strain A-280): ≤ 0.5 µg/mL
MIC ([15]; strain A-281): ≤ 0.5 µg/mL
MIC ([15]; strain WAL-2112): ≤ 0.5 µg/mL
MIC ([15]; strain WAL-3657): ≤ 0.5 µg/mL
MIC ([15]; strain WAL-4268): ≤ 0.5 µg/mL
MIC (Staphylococcus aureus): 0.125 µg/mL (≈ 0.0952 µM)
MIC (Staphylococcus aureus; strain S13E): 0.125 µg/mL (≈ 0.0952 µM)
MIC (Staphylococcus aureus; strain X1.1): 0.06 µg/mL (≈ 0.0457 µM)
MIC (Staphylococcus aureus; strain X400): 0.25 µg/mL (≈ 0.19 µM)
MIC ([16]; strain EPI1): 0.25 µg/mL (≈ 0.19 µM)
MIC ([16]; strain EPI2): 2.0 µg/mL (≈ 1.52 µM)
MIC [17]: 0.25 µg/mL (≈ 0.19 µM)
MIC [18]: 0.06 µg/mL (≈ 0.0457 µM)
MIC (Streptococcus Group D; strain 9960): 0.5 µg/mL (≈ 0.381 µM)
MIC (Streptococcus Group D; strain X66): 0.5 µg/mL (≈ 0.381 µM)
